Reference: patent US8927533B2, “Thio derivatives bearing lactams as potent HDAC inhibitors and their uses as medicaments” (SIGMA-TAU Industrie Farmaceutiche Riunite S.p.A., priority 2011, dated 2015)
Like-named read-outs stand apart in the source and are kept apart here.

Tests used:
Assay type in all cases: biochemical
[1] = biological target: HDAC4 (Homo sapiens, UniProt P56524); experiment: HDAC enzymatic assay, HDAC4
Description: (§1) Each compound was dissolved in DMSO, and progressively diluted solutions were used for testing. […] Upon its deacetylation, the fluorophore was released given rise to fluorescence emission which was detected by a fluorimeter, and the IC50 values of the compounds were determined by analyzing dose-response inhibition curves.

[2] = biological target: T1, HDAC7 (Homo sapiens, UniProt Q8WUI4); experiment: HDAC enzymatic assay, HDAC7
T1 sequence (Q8WUI4 1-952): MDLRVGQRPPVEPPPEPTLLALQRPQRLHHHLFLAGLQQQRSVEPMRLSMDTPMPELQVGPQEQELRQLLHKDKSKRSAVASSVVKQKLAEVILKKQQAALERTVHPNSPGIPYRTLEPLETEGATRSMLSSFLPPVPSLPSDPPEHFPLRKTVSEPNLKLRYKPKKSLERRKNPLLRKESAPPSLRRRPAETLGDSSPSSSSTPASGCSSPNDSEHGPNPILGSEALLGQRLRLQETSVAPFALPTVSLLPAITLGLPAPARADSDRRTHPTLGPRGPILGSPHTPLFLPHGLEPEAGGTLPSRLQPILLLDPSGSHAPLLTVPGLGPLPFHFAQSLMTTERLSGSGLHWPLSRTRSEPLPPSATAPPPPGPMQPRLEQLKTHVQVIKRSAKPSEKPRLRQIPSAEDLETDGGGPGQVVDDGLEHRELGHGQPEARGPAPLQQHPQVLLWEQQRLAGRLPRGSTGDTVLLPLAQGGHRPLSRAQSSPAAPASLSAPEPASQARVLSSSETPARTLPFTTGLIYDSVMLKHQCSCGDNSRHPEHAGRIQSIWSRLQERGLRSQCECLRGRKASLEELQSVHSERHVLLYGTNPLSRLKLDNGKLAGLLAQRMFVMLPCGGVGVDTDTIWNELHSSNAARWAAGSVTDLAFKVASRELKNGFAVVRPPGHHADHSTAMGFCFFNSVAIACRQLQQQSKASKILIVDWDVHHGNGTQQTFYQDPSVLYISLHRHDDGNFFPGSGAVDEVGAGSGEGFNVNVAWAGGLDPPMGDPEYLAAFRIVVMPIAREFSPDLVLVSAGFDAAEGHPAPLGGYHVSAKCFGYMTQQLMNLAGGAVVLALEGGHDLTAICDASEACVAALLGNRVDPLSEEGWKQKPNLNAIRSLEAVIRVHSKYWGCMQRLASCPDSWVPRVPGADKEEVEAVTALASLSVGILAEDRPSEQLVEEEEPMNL
Description: as §1

[3] = biological target: T2, HDAC10 (Homo sapiens, UniProt Q969S8); experiment: HDAC enzymatic assay, HDAC10
T2 sequence (Q969S8 1-669): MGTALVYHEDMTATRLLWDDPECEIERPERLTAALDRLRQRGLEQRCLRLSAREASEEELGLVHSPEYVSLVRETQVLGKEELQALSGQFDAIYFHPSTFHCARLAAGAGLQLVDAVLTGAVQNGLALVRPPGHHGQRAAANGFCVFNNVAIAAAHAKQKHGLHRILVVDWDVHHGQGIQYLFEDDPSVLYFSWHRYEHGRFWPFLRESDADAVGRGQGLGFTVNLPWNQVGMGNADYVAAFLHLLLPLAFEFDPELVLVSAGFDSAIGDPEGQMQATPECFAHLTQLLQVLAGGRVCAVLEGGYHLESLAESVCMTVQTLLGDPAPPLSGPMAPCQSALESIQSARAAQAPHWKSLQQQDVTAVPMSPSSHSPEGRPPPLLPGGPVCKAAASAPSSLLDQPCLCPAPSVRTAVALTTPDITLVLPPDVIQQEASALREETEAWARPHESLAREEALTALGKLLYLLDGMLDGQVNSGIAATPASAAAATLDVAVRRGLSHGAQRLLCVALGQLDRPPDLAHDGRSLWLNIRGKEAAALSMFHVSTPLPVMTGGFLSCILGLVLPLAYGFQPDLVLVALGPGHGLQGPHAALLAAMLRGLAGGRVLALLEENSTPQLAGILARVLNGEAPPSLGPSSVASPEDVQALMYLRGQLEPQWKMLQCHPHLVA
Description: as §1

[4] = Table 2, thio (SH) vs hydroxamate (CONHOH) MBG analogues, read-out: HDAC isoforms, 4 (IC50)
[5] = Table 2, thio (SH) vs hydroxamate (CONHOH) MBG analogues, read-out: HDAC isoforms, 7 (IC50)
[6] = Table 2, thio (SH) vs hydroxamate (CONHOH) MBG analogues, read-out: HDAC isoforms, 10 (IC50)
[7] = fluorogenic tetrapeptide RHKKAc substrate 10 μM, read-out: HDAC isoforms IC50 (nM), 4
[8] = fluorogenic tetrapeptide RHKKAc substrate 10 μM, read-out: HDAC isoforms IC50 (nM), 7
[9] = fluorogenic tetrapeptide RHKKAc substrate 10 μM, read-out: HDAC isoforms IC50 (nM), 10

HDAC4, sequence (P56524 whole entry): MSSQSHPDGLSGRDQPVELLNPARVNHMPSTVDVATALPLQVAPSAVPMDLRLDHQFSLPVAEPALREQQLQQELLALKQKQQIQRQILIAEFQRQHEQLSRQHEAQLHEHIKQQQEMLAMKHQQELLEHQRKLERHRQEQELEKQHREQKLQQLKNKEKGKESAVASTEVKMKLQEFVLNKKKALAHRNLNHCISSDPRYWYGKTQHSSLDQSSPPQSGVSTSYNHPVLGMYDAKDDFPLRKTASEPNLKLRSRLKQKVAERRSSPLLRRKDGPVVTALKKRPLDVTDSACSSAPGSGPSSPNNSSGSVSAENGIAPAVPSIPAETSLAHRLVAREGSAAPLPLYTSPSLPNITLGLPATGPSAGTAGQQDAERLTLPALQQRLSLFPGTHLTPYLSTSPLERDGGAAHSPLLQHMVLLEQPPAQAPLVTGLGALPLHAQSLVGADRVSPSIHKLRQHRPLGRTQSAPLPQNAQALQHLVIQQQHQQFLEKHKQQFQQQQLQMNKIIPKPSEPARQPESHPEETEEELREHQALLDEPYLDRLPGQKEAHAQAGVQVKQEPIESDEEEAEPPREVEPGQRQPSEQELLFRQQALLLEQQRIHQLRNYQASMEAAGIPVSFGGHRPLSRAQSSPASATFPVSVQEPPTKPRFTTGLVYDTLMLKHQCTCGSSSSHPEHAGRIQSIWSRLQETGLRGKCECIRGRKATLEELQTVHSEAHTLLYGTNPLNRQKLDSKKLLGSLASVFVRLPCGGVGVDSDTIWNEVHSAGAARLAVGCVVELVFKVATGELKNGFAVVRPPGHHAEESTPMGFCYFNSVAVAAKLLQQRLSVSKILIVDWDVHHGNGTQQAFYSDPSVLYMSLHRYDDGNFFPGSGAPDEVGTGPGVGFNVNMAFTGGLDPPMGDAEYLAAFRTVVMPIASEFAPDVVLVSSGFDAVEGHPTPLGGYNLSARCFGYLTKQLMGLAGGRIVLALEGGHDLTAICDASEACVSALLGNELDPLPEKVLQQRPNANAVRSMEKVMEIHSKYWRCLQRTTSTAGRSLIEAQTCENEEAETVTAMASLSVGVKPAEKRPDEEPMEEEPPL

| IC50 [1, 4] | IC50 [2, 5] | IC50 [3, 6] | IC50 [1, 7] | IC50 [2, 8] | IC50 [3, 9] | Compound |
| --- | --- | --- | --- | --- | --- | --- |
| < 50 nM | < 50 nM | < 50 nM |  |  |  | CC(=O)SCCCCC[C@H](NC(=O)[C@H]1CCC(=O)N1)C(=O)Nc1ccccc1 [Example 21, Thioacetic acid S—{(S)-6-[((R)-5-oxo-pyrrolidine-2-carbonyl)-amino]-6-phenylcarbamoyl-hexyl}ester] |
|  |  |  | < 50 nM | < 50 nM | < 50 nM | O=C1CCC[C@@H](C(=O)N[C@@H](CCCCCS)C(=O)Nc2ccccc2)N1 [Example 23, (S)-6-Oxo-piperidine-2-carboxylic acid ((S)-6-mercapto-1-phenylcarbamoyl-hexyl)amide] |
|  |  |  | < 50 nM | < 50 nM | 100 to 500 nM | O=C1CCC[C@@H](C(=O)N[C@@H](CCCCCS)C(=O)NC2CCCC2)N1 [Example 24, (S)-6-Oxo-piperidine-2-carboxylic acid ((S)-1-cyclopentylcarbamoyl-6-mercapto-hexyl)amide] |
|  |  |  | 100 to 500 nM | 100 to 500 nM | 100 to 500 nM | O=C1CCC[C@@H](C(=O)N[C@@H](CCCCCS)C(=O)NCc2cccc(OCc3ccccc3)c2)N1 [Example 25, (S)-6-Oxo-piperidine-2-carboxylic acid [(S)-1-(3-benzyloxy-benzylcarbamoyl)-6-mercapto-hexyl]-amide] |
|  |  |  | < 50 nM | 100 to 500 nM | 100 to 500 nM | O=C1CCC[C@@H](C(=O)N[C@@H](CCCCCS)C(=O)NCc2ccc(C(F)(F)F)cc2)N1 [Example 26, (S)-6-Oxo-piperidine-2-carboxylic acid [(S)-6-mercapto-1-(4-trifluoromethyl-benzylcarbamoyl)-hexyl]-amide] |
|  |  |  | 100 to 500 nM | < 50 nM | < 50 nM | O=C1C[C@@H](C(=O)N[C@@H](CCCCCS)C(=O)Nc2ccccc2)N1 [Example 27, (S)-4-Oxo-azetidine-2-carboxylic acid ((S)-6-mercapto-1-phenylcarbamoyl-hexyl)amide] |
|  |  |  | < 50 nM | 100 to 500 nM | < 50 nM | O=C1NC[C@H](c2ccccc2)[C@@H]1C(=O)N[C@@H](CCCCCS)C(=O)Nc1ccccc1 [Example 28, (3S,4S)-2-Oxo-4-phenyl-pyrrolidine-3-carboxylic acid ((S)-6-mercapto-1-phenylcarbamoyl-hexyl)-amide] |
|  |  |  | < 50 nM | 100 to 500 nM | < 50 nM | O=C1NC[C@@H](c2ccccc2)[C@H]1C(=O)N[C@@H](CCCCCS)C(=O)Nc1ccccc1 [Example 29, (3R,4R)-2-Oxo-4-phenyl-pyrrolidine-3-carboxylic acid ((S)-6-mercapto-1-phenylcarbamoyl-hexyl)-amide] |
|  |  |  | < 50 nM | 100 to 500 nM | < 50 nM | O=C1NC[C@H](c2ccccc2)[C@H]1C(=O)N[C@@H](CCCCCS)C(=O)Nc1ccccc1 [Example 30, (3R,4S)-2-Oxo-4-phenyl-pyrrolidine-3-carboxylic acid ((S)-6-mercapto-1-phenylcarbamoyl-hexyl)-amide] |
| < 50 nM | < 50 nM | < 50 nM | < 50 nM | < 50 nM | < 50 nM | O=C1NC[C@@H](c2ccccc2)[C@@H]1C(=O)N[C@@H](CCCCCS)C(=O)Nc1ccccc1 [Example 31, (3S,4R)-2-Oxo-4-phenyl-pyrrolidine-3-carboxylic acid ((S)-6-mercapto-1-phenylcarbamoyl-hexyl)-amide] |
|  |  |  | < 50 nM | 100 to 500 nM | 100 to 500 nM | O=C1CCC[C@@H](C(=O)N[C@@H](CCCCCS)C(=O)N2CCc3ccccc3C2)N1 [Example 32, (S)-6-Oxo-piperidine-2-carboxylic acid [(S)-1-(3,4-dihydro-1H-isoquinoline-2-carbonyl)-6-mercapto-hexyl]-amide] |
| 50 to 100 nM | < 50 nM | < 50 nM | 50 to 100 nM | < 50 nM | < 50 nM | O=C1CC[C@H](C(=O)N[C@@H](CCCCCS)C(=O)Nc2ccccc2)N1 [Example 33, (R)-5-Oxo-pyrrolidine-2-carboxylic acid ((S)-6-mercapto-1-phenylcarbamoyl-hexyl)amide] |
|  |  |  | < 50 nM | 100 to 500 nM | 50 to 100 nM | Cc1cccc(CCNC(=O)[C@H](CCCCCS)NC(=O)[C@@H]2CCCC(=O)N2)c1 [Example 34, (S)-6-Oxo-piperidine-2-carboxylic acid [(S)-6-mercapto-1-(2-m-tolyl-ethylcarbamoyl)hexyl]-amide] |
|  |  |  | < 50 nM | < 50 nM | < 50 nM | O=C1NCCC[C@H]1C(=O)N[C@@H](CCCCCS)C(=O)Nc1ccccc1 [Example 35, (R)-2-Oxo-piperidine-3-carboxylic acid ((S)-6-mercapto-1-phenylcarbamoyl-hexyl)amide] |
|  |  |  | < 50 nM | 50 to 100 nM | < 50 nM | O=C1NCCC[C@@H]1C(=O)N[C@@H](CCCCCS)C(=O)Nc1ccccc1 [Example 36, (S)-2-Oxo-piperidine-3-carboxylic acid ((S)-6-mercapto-1-phenylcarbamoyl-hexyl)amide] |
|  |  |  | < 50 nM | 100 to 500 nM | < 50 nM | O=C1CCC[C@H](C(=O)N[C@@H](CCCCCS)C(=O)Nc2ccccc2)N1 [Example 37, (R)-6-Oxo-piperidine-2-carboxylic acid ((S)-6-mercapto-1-phenylcarbamoyl-hexyl)amide] |
|  |  |  | 100 to 500 nM | < 50 nM | < 50 nM | Cc1cccc(NC(=O)[C@H](CCCCCS)NC(=O)[C@@H]2CCCC(=O)N2)c1 [Example 38, (S)-6-Oxo-piperidine-2-carboxylic acid ((S)-6-mercapto-1-m-tolylcarbamoyl-hexyl)amide] |
|  |  |  | 100 to 500 nM | < 50 nM | < 50 nM | Cc1ccc(NC(=O)[C@H](CCCCCS)NC(=O)[C@@H]2CCCC(=O)N2)cc1 [Example 39, (S)-6-Oxo-piperidine-2-carboxylic acid ((S)-6-mercapto-1-p-tolylcarbamoyl-hexyl)amide] |
|  |  |  | 100 to 500 nM | < 50 nM | < 50 nM | CN1C(=O)CCC[C@H]1C(=O)N[C@@H](CCCCCS)C(=O)Nc1ccccc1 [Example 40, (S)-1-Methyl-6-oxo-piperidine-2-carboxylic acid ((S)-6-mercapto-1-phenylcarbamoyl-hexyl)-amide] |
